Experimental data from patent publication US20250092052A1, “HETEROARYL DERIVATIVE COMPOUNDS, AND USES THEREOF” (VORONOI INC., priority 2023, published 2025).

Experiments:
[1] = target: human PKMYT1 enzyme (Homo sapiens (Human), UniProt Q99640); assay: Inhibitory activity against PKMYT1 kinase (ADP-Glo kinase assay); type: biochemical; details: purified human PKMYT1, ATP, CDK1 substrate, 25° C., 1 hour
Method: To evaluate the inhibitory activity of the compounds synthesized according to the above Examples against PKMYT1 kinase, the Example compounds were reacted with purified human PKMYT1 enzyme and assessed using the following method.
The reaction buffer was used as a composition of 200 mM Tris-HCl pH 7.4, 100 mM MgCl2, 0.5 mg/mL BSA, 0.25 mM DTT, and the reactions of all the tests were carried out on the reaction buffer.
The compound was diluted in 12 steps using a serial dilution method from a 10 mM DMSO stock, and the enzyme activity was measured at a final compound concentration of 10˜0.00005645 μM. During the test, the enzyme activity was confirmed using in vitro ADP-Glo™kinase assay (Promega) after reacting with the proper concentration of PKMYT1 enzyme, purified ATP, and enzyme substrate (CDK1) at 25° C. for 1 hour. At a ratio of 2:2:1, an enzyme-active reaction solution, an ADP-Glo reaction solution, and an enzyme-active detection solution were reacted to measure the inhibition of the enzyme's activity with luminescence. Based on the […] of the enzyme activity of the solvent control that was not treated with the compound, the degree of enzyme activity inhibition was calculated according to the treatment concentration of each compound, and the concentration of each compound that inhibits 50% of enzyme activity was determined as IC50 (nM) value and the value was obtained by using GraphPad Prism 8.3.0 (GraphPad software Inc., San Diego) software.

[2] = target: Myt1-KD (Homo sapiens (Human), UniProt Q99640); assay: Thermal Shift Assay, compound binding to Myt1-KD; details: 2 μM protein, 100 μM compound, Tm of compound minus Tm of DMSO
Myt1-KD, sequence (Q99640 110-359): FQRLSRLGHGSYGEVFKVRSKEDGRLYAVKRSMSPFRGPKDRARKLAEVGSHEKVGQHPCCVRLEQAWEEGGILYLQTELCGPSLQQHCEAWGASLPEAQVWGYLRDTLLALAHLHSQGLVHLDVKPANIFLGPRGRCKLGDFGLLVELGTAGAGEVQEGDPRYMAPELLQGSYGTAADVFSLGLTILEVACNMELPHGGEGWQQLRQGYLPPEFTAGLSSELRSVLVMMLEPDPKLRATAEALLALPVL
Method: The degree of compound binding to Myt1-KD was tested using a Thermal Shift Assay. Each protein was diluted to a concentration of 2 μM in 50 mM Tris (pH 7.5) with 100 μM of the compound. SYPRO™ Orange dye was added to the solution, and the plate was transferred to a QuantStudio3 Real-Time PCR System (Applied Biosystems by Thermo Fisher Scientific). […] The degree of protein melting in the presence of the compound compared to DMSO was calculated according to the following Equation 1. ΔTm=Tm (Temperature of Example compound)−Tm (Temperature of DMSO) [Equation 1]

human PKMYT1 enzyme, sequence (Q99640 whole entry): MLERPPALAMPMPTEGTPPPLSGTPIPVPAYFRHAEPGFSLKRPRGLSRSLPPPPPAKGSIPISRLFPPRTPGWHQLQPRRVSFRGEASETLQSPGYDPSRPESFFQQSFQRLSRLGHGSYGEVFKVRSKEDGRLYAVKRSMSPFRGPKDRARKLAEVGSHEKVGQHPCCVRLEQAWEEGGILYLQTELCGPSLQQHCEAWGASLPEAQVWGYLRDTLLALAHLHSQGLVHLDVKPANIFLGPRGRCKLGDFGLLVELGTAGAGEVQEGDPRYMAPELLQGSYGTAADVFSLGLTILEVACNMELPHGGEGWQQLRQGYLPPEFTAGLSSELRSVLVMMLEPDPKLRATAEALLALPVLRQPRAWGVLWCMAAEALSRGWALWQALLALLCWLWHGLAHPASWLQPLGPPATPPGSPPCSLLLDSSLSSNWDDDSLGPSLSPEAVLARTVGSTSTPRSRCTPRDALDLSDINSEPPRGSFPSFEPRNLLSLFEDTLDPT

| Structure (SMILES) | IC50 [1] | ΔTm (° C.) [2] | ΔTm at 100 µM [2] |
| --- | --- | --- | --- |
| Cc1ccc(O)c(C)c1-n1c(N)c(C(=O)c2cc3occc3[nH]2)c2nc(C)c(C)nc21 (atropisomer, axis not shown) [Example 18, (R)-(6-amino-5-(3-hydroxy-2,6-dimethylphenyl)-2,3-dimethyl-5H-pyrrolo[2,3-b]pyrazin-7-yl)(4H-furo[3,2-b]pyrrol-5-yl)methanone] | ≤ 200 nM | A (ΔTm (° C.) ≥ 5° C.) | – |
| Cc1ccc(O)c(C)c1-n1c(N)c(C(=O)c2ccc[nH]2)c2nccnc21 [Example 23, (6-amino-5-(3-hydroxy-2,6-dimethylphenyl)-5H-pyrrolo[2,3-b]pyrazin-7-yl)(1H-pyrrol-2-yl)methanone] | ≤ 200 nM | – | ≤ 5 °C |
| Cc1ccc(O)c(C)c1-n1c(N)c(C(=O)c2nc3ccccc3[nH]2)c2cccnc21 [Example 3, (S)-(2-amino-1-(3-hydroxy-2,6-dimethylphenyl)-1H-pyrrolo[2,3-b]pyridin-3-yl)(1H-benzo[d]imidazol-2-yl)methanone] | ≤ 200 nM | A (ΔTm (° C.) ≥ 5° C.) | – |
| Cc1ccc(O)c(C)c1-n1c(N)c(C(=O)c2cc3sccc3[nH]2)c2nc(C)c(C)nc21 [Example 13, (S)-(6-amino-5-(3-hydroxy-2,6-dimethylphenyl)-2,3-dimethyl-5H-pyrrolo[2,3-b]pyrazin-7-yl)(4H-thieno[3,2-b]pyrrol-5-yl)methanone] | ≤ 200 nM | A (ΔTm (° C.) ≥ 5° C.) | – |
| Cc1ccc(O)c(C)c1-n1c(N)c(C(=O)c2cc3ccccc3[nH]2)c2nccnc21 (single isomer, unassigned) [Example 1] | ≤ 200 nM | – | ≥ 5 °C |
| Cc1ccc(O)c(C)c1-n1c(N)c(C(=O)c2cc3ccncc3[nH]2)c2nccnc21 (atropisomer, axis not shown) [Example 25, (R)-(6-amino-5-(3-hydroxy-2,6-dimethylphenyl)-5H-pyrrolo[2,3-b]pyrazin-7-yl)(1H-pyrrolo[2,3-c]pyridin-2-yl)methanone] | ≤ 200 nM | A (ΔTm (° C.) ≥ 5° C.) | – |
| Cc1ccc(O)c(C)c1-n1c(N)c(C(=O)c2cc3ccccc3[nH]2)c2nc(C)c(C)nc21 (atropisomer, axis not shown) [Example 9, (S)-(6-amino-5-(3-hydroxy-2,6-dimethylphenyl)-2,3-dimethyl-5H-pyrrolo[2,3-b]pyrazin-7-yl)(1H-indol-2-yl)methanone] | 200 to 500 nM | – | ≥ 5 °C |
| Cc1ccc(O)c(C)c1-n1c(N)c(C(=O)c2cc3cc(N4CCN(C)CC4)ccc3[nH]2)c2nccnc21 (atropisomer, axis not shown) [Example 22, (R)-(6-amino-5-(3-hydroxy-2,6-dimethylphenyl)-5H-pyrrolo[2,3-b]pyrazin-7-yl)(5-(4-methylpiperazin-1-yl)-1H-indol-2-yl)methanone] | ≤ 200 nM | A (ΔTm (° C.) ≥ 5° C.) | – |
| Cc1ccc(O)c(C)c1-n1c(N)c(C(=O)c2cc3cc(CN4CCOCC4)ccc3[nH]2)c2nccnc21 (atropisomer, axis not shown) [Example 19, (S)-(6-amino-5-(3-hydroxy-2,6-dimethylphenyl)-5H-pyrrolo[2,3-b]pyrazin-7-yl)(5-(morpholinomethyl)-1H-indol-2-yl)methanone] | ≤ 200 nM | – | ≥ 5 °C |
| Cc1ccc(O)c(C)c1-n1c(N)c(C(=O)c2cc3cc(P(C)(C)=O)ccc3[nH]2)c2nccnc21 [Example 40, (6-amino-5-(3-hydroxy-2,6-dimethylphenyl)-5H-pyrrolo[2,3-b]pyrazin-7-yl)(5-(dimethylphosphoryl)-1H-indol-2-yl)methanone] | – | – | ≥ 5 °C |
| Cc1ccc(O)c(C)c1-n1c(N)c(C(=O)c2cc3sccc3[nH]2)c2nc(C)c(C)nc21 [Example 14, (R)-(6-amino-5-(3-hydroxy-2,6-dimethylphenyl)-2,3-dimethyl-5H-pyrrolo[2,3-b]pyrazin-7-yl)(4H-thieno[3,2-b]pyrrol-5-yl)methanone] | – | B (5 °C ≥ ΔTm (° C.)) | – |
| Cc1ccc(O)c(C)c1-n1c(N)c(C(=O)c2cc3cnc(N4CCOCC4)cc3[nH]2)c2nc(C)c(C)nc21 (atropisomer, axis not shown) [Example 16, (R)-(6-amino-5-(3-hydroxy-2,6-dimethylphenyl)-2,3-dimethyl-5H-pyrrolo[2,3-b]pyrazin-7-yl)(6-morpholino-1H-pyrrolo[3,2-c]pyridin-2-yl)methanone] | – | B (5 °C ≥ ΔTm (° C.)) | – |
| Cc1ccc(O)c(C)c1-n1c(N)c(C(=O)c2cc3ccccc3[nH]2)c2nc(C)c(C)nc21 (atropisomer, axis not shown) [Example 10, (R)-(6-amino-5-(3-hydroxy-2,6-dimethylphenyl)-2,3-dimethyl-5H-pyrrolo[2,3-b]pyrazin-7-yl)(1H-indol-2-yl)methanone] | – | B (5 °C ≥ ΔTm (° C.)) | – |
| Cc1ccc(O)c(C)c1-n1c(N)c(C(=O)c2cc3cc(N4CCN(C)CC4)ccc3[nH]2)c2nccnc21 (atropisomer, axis not shown) [Example 21, (S)-(6-amino-5-(3-hydroxy-2,6-dimethylphenyl)-5H-pyrrolo[2,3-b]pyrazin-7-yl)(5-(4-methylpiperazin-1-yl)-1H-indol-2-yl)methanone] | – | – | ≤ 5 °C |
| Cc1ccc(O)c(C)c1-n1c(N)c(C(=O)c2cc3cnc(N4CCOCC4)cc3[nH]2)c2nc(C)c(C)nc21 (atropisomer, axis not shown) [Example 15, (S)-(6-amino-5-(3-hydroxy-2,6-dimethylphenyl)-2,3-dimethyl-5H-pyrrolo[2,3-b]pyrazin-7-yl)(6-morpholino-1H-pyrrolo[3,2-c]pyridin-2-yl)methanone] | ≤ 200 nM | – | ≥ 5 °C |
| Cc1ccc(O)c(C)c1-n1c(N)c(C(=O)c2cc3sccc3[nH]2)c2nccnc21 (atropisomer, axis not shown) [Example 5, (S)-(6-amino-5-(3-hydroxy-2,6-dimethylphenyl)-5H-pyrrolo[2,3-b]pyrazin-7-yl)(4H-thieno[3,2-b]pyrrol-5-yl)methanone] | ≤ 200 nM | – | ≥ 5 °C |
| Cc1ccc(O)c(C)c1-n1c(N)c(C(=O)c2cc3occc3[nH]2)c2nccnc21 (atropisomer, axis not shown) [Example 7, (S)-(6-amino-5-(3-hydroxy-2,6-dimethylphenyl)-5H-pyrrolo[2,3-b]pyrazin-7-yl)(4H-furo[3,2-b]pyrrol-5-yl)methanone] | ≤ 200 nM | – | ≥ 5 °C |
